For data set [1], the system named is MDCK-MDR1 cells. Description: Comparison of Papp,B-A with and without inhibitor in MDCK-MDR1 cells (own and literature data). The settings on record: calculated from literature Papp,B⟶A and Papp with inhibitor; pH 7.4 iso-method.
For data set [2], the system named is MDCK-MDR1 cells. The following applies: pH 7.4 iso-method, cited from earlier work; for Papp, inhibitor: with inhibitor; for Papp, B⟶A: without inhibitor.
Data set [3] in a line: Calculation of neutral fraction (fn).
For data set [4] the following is noted: basic; no reference given; cited from earlier work.
[5] abbreviates: ref Troutman and Thakker (2003).

Like-named read-outs stand apart in the source and are kept apart here.

Turning to `CN(C)CCC(c1ccc(Br)cc1)c1ccccn1` (stereo not shown) [Brompheniramine], in the data set with MDCK-MDR1 cells [1], the Factor difference is listed as 2. In addition, in the data set on MDCK-MDR1 cells [2] (ref Obradovic et al. (2007)), the “Papp, inhibitor” value was 76.8 ×10⁻⁶ cm/s and the “Papp, B⟶A” value was 118.8 ×10⁻⁶ cm/s.
Regarding `CN(C)CCC(c1ccc(Cl)cc1)c1ccccn1` (stereo not shown) [Chlorpheniramine], the Factor difference in the data set with MDCK-MDR1 cells [1] is reported as 1. In addition, in the data set with MDCK-MDR1 cells [2] (ref Obradovic et al. (2007)), the “Papp, inhibitor” value is 66.2 ×10⁻⁶ cm/s and the “Papp, B⟶A” value is 93.7 ×10⁻⁶ cm/s.
In the case of `CN/C(=N/CCSCc1nc[nH]c1C)NC#N` [Cimetidine], the Factor difference with MDCK-MDR1 cells [1] is recorded as 4. Besides, in the data set on MDCK-MDR1 cells [2] (ref Doan et al. (2002)), the “Papp, inhibitor” value was 0.515 ×10⁻⁶ cm/s and the “Papp, B⟶A” value is 1.89 ×10⁻⁶ cm/s.
As to `CN1CCC[C@@H]1CCO[C@](C)(c1ccccc1)c1ccc(Cl)cc1` [Clemastine], the Factor difference in the data set on MDCK-MDR1 cells [1] is reported as 3. Also, the “Papp, B⟶A” value in the data set with MDCK-MDR1 cells [2] (ref Obradovic et al. (2007)) was 156.4 ×10⁻⁶ cm/s.
For the molecule `CN1CCC[C@@H]1Cc1c[nH]c2ccc(CCS(=O)(=O)c3ccccc3)cc12` [Eletriptan], the Factor difference in the data set with MDCK-MDR1 cells [1] was 2. In the data set on MDCK-MDR1 cells [2] (ref Doan et al. (2002)), the “Papp, inhibitor” value is 42.9 ×10⁻⁶ cm/s and the “Papp, B⟶A” value was 66.3 ×10⁻⁶ cm/s.
Take `NS(=O)(=O)c1cc(C(=O)O)c(NCc2ccco2)cc1Cl` [Furosemide]: the fn in data set [3] (neutral fraction at pH 9) is 0.0%.
For `Nc1ccn([C@@H]2CS[C@H](CO)O2)c(=O)n1` [Lamiduvine], the Factor difference in the data set on MDCK-MDR1 cells [1] is 2. For the same molecule, in the data set with MDCK-MDR1 cells [2] (ref De Souza et al. (2009)), the “Papp, inhibitor” value was 0.11 ×10⁻⁶ cm/s and the “Papp, B⟶A” value was 0.18 ×10⁻⁶ cm/s.
In the case of `CN(C)C(=O)C(CCN1CCC(O)(c2ccc(Cl)cc2)CC1)(c1ccccc1)c1ccccc1` [Loperamide], the results for the “Papp, inhibitor” value in the data set with MDCK-MDR1 cells [2] (ref Doan et al. (2002)) and in the data set on MDCK-MDR1 cells [2] (ref Wang et al. (2005)) were 45.6 ×10⁻⁶ cm/s and 12 ×10⁻⁶ cm/s, respectively. The “Papp, B⟶A” value was 77.3 ×10⁻⁶ cm/s in the data set on MDCK-MDR1 cells [2] (ref Doan et al. (2002)) and 42.64 ×10⁻⁶ cm/s in the data set on MDCK-MDR1 cells [2] (ref Wang et al. (2005)).
For the molecule `C[C@H]1C[C@@H]2[C@H]([C@@H](O)C[C@@]3(C)[C@H]2CC[C@]3(O)C(=O)CO)[C@@]2(C)C=CC(=O)C=C12` [Methylprednisolone], in the data set on MDCK-MDR1 cells [1], the Factor difference is 3. Also, in the data set on MDCK-MDR1 cells [2] (setting [5]), the “Papp, inhibitor” value is 28.48 ×10⁻⁶ cm/s and the “Papp, B⟶A” value is 94.3 ×10⁻⁶ cm/s.
`Cc1c(O)cccc1C(=O)N[C@@H](CSc1ccccc1)[C@H](O)CN1C[C@H]2CCCC[C@H]2C[C@H]1C(=O)NC(C)(C)C` [Nelfinavir]: the Factor difference in the data set on MDCK-MDR1 cells [1] was 4. In the data set with MDCK-MDR1 cells [2] (ref Doan et al. (2002)), the “Papp, inhibitor” value is 19.7 ×10⁻⁶ cm/s and the “Papp, B⟶A” value was 78.6 ×10⁻⁶ cm/s.
On to `CN(C)C(=O)Oc1cccc([N+](C)(C)C)c1` [Neostigmine], for which, in the data set with MDCK-MDR1 cells [1], the Factor difference was 2. In addition, in the data set with MDCK-MDR1 cells [2] (ref Doan et al. (2002)), the “Papp, inhibitor” value is 0.852 ×10⁻⁶ cm/s and the “Papp, B⟶A” value is 1.54 ×10⁻⁶ cm/s.
With `C=C[C@H]1C[N@@]2CC[C@H]1C[C@@H]2[C@@H](O)c1ccnc2ccc(OC)cc12` [Quinidine], the “Papp, inhibitor” value is 0.176 ×10⁻⁶ cm/s with MDCK-MDR1 cells [2] (ref Gertz et al. (2010)), 25.6 ×10⁻⁶ cm/s with MDCK-MDR1 cells [2] (setting [5]) and 10 ×10⁻⁶ cm/s in the data set on MDCK-MDR1 cells [2] (ref Wang et al. (2005)). The “Papp, B⟶A” value with MDCK-MDR1 cells [2] (ref Gertz et al. (2010)) is 66.88 ×10⁻⁶ cm/s; with MDCK-MDR1 cells [2] (setting [5]) it was 156 ×10⁻⁶ cm/s; with MDCK-MDR1 cells [2] (ref Wang et al. (2005)), 114.82 ×10⁻⁶ cm/s.
With `CNC(=C[N+](=O)[O-])NCCSCc1ccc(CN(C)C)o1` [Ranitidine], the Factor difference with MDCK-MDR1 cells [1] is 3. Besides, in the data set with MDCK-MDR1 cells [2] (setting [5]), the “Papp, inhibitor” value is 1.25 ×10⁻⁶ cm/s and the “Papp, B⟶A” value was 3.29 ×10⁻⁶ cm/s.
`COC(=O)c1ccccc1-c1c2ccc(=N)cc-2oc2cc(N)ccc12` [Rhodamine 123]: the “Papp, inhibitor” value in the data set with MDCK-MDR1 cells [2] (ref Tang et al. (2004)) was 1.173 ×10⁻⁶ cm/s; in the data set with MDCK-MDR1 cells [2] (setting [5]), 1.16 ×10⁻⁶ cm/s; with MDCK-MDR1 cells [2] (ref Wang et al. (2005)) it was 2.2 ×10⁻⁶ cm/s. Also, the “Papp, B⟶A” value with MDCK-MDR1 cells [2] (ref Tang et al. (2004)) is 10.17 ×10⁻⁶ cm/s; with MDCK-MDR1 cells [2] (setting [5]), 15.3 ×10⁻⁶ cm/s; in the data set on MDCK-MDR1 cells [2] (ref Wang et al. (2005)), 7.63 ×10⁻⁶ cm/s.
On to `CC(C)c1nc(CN(C)C(=O)N[C@H](C(=O)N[C@@H](Cc2ccccc2)C[C@H](O)[C@H](Cc2ccccc2)NC(=O)OCc2cncs2)C(C)C)cs1` [Ritonavir], for which the Factor difference with MDCK-MDR1 cells [1] is 6. The “Papp, B⟶A” value with MDCK-MDR1 cells [2] (setting [5]) is 23.6 ×10⁻⁶ cm/s.
For the molecule `CC(C)(C)NC(=O)[C@@H]1C[C@@H]2CCCC[C@@H]2CN1C[C@@H](O)[C@H](Cc1ccccc1)NC(=O)[C@H](CC(N)=O)NC(=O)c1ccc2ccccc2n1` [Saquinavir], in the data set with MDCK-MDR1 cells [2] (ref Doan et al. (2002)), the “Papp, inhibitor” value is 22 ×10⁻⁶ cm/s and the “Papp, B⟶A” value is 39.5 ×10⁻⁶ cm/s. For the same molecule, in the data set on MDCK-MDR1 cells [2] (setting [5]), the “Papp, inhibitor” value was 12.6 ×10⁻⁶ cm/s and the “Papp, B⟶A” value was 108 ×10⁻⁶ cm/s.
Take `CC(C)NCC(O)c1ccc(NS(C)(=O)=O)cc1` (stereo not shown) [Sotolol]: the Factor difference with MDCK-MDR1 cells [1] is 5. In addition, in the data set on MDCK-MDR1 cells [2] (ref Liu et al. (2012)), the “Papp, inhibitor” value is 0.2 ×10⁻⁶ cm/s and the “Papp, B⟶A” value was 1.05 ×10⁻⁶ cm/s.
With `CC(C)(C)NCC(O)COc1ccc(NC(=O)NC2CCCCC2)cc1` (stereo not shown) [Talinolol], the pKa in data set [4] is 9.4. Also, the fn in data set [3] (neutral fraction at pH 8) was 5%.
As for `CC(C)(C)c1ccc(C(O)CCCN2CCC(C(O)(c3ccccc3)c3ccccc3)CC2)cc1` (stereo not shown) [Terfenadine], in the data set on MDCK-MDR1 cells [2] (ref Doan et al. (2002)), the “Papp, inhibitor” value was 28.5 ×10⁻⁶ cm/s and the “Papp, B⟶A” value is 42.1 ×10⁻⁶ cm/s. Also, in the data set with MDCK-MDR1 cells [2] (ref Obradovic et al. (2007)), the “Papp, inhibitor” value was 2.39 ×10⁻⁶ cm/s and the “Papp, B⟶A” value is 11.43 ×10⁻⁶ cm/s.
Turning to `CC[C@]1(O)C[C@@H]2CN(CCc3c([nH]c4ccccc34)[C@@](C(=O)OC)(c3cc4c(cc3OC)N(C)[C@H]3[C@@](O)(C(=O)OC)[C@H](OC(C)=O)[C@]5(CC)C=CCN6CC[C@]43[C@@H]65)C2)C1` [Vinblastine], the “Papp, inhibitor” value in the data set with MDCK-MDR1 cells [2] (ref Taub et al. (2005)) was 1.92 ×10⁻⁶ cm/s; in the data set with MDCK-MDR1 cells [2] (setting [5]), 17.7 ×10⁻⁶ cm/s; with MDCK-MDR1 cells [2] (ref Wang et al. (2005)), 1.2 ×10⁻⁶ cm/s. Also, the “Papp, B⟶A” value with MDCK-MDR1 cells [2] (ref Taub et al. (2005)) was 13.22 ×10⁻⁶ cm/s; in the data set on MDCK-MDR1 cells [2] (setting [5]), 35.7 ×10⁻⁶ cm/s; in the data set on MDCK-MDR1 cells [2] (ref Wang et al. (2005)), 10.77 ×10⁻⁶ cm/s.
In the case of `CCOC(=O)CN[C@@H](C(=O)N1CC[C@H]1C(=O)NCc1ccc(/C(N)=N\O)cc1)C1CCCCC1` [Ximelagatran], in the data set with MDCK-MDR1 cells [1], the Factor difference is given as 6. For the same molecule, in the data set with MDCK-MDR1 cells [2] (ref Eriksson et al. (2006)), the “Papp, inhibitor” value is 7 ×10⁻⁶ cm/s and the “Papp, B⟶A” value was 39 ×10⁻⁶ cm/s.
In the case of `Cc1cn([C@H]2C[C@H](N=[N+]=[N-])[C@@H](CO)O2)c(=O)[nH]c1=O` [Zidovudine], in the data set on MDCK-MDR1 cells [1], the Factor difference is 3. Besides, in the data set on MDCK-MDR1 cells [2] (ref De Souza et al. (2009)), the “Papp, inhibitor” value was 3.26 ×10⁻⁶ cm/s and the “Papp, B⟶A” value was 9.98 ×10⁻⁶ cm/s.
